Several values for one entry are separate records, joined by “and”; a condition that tells them apart may be missing. Equal values may be shown once.
What was measured:
[1] = system: primary human hepatocytes; assay: Nuclear counts (DAPI) in P. vivax-infected primary hepatocytes as measure of toxicity; type: cell-based; conditions: two technical replicates
In short: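 Toxicity readout: DAPI nuclear counts normalized to DMSO wells, from confocal images of fixed P. vivax-infected single-donor primary human hepatocytes. Compounds, up to 20 µM, were applied daily from day 5 until day 8 post-infection; two technical replicates.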

PvNMT = PvNMT (Plasmodium vivax, UniProt A5K1A2); assay: NMT activity assay (CPM detection of free CoA), PvNMT; conditions: for IC50: PvNMT IC50, mean of two or more determinations; for SI: enzyme selectivity, HsNMT IC50/PvNMT IC50
Sequence of PvNMT (A5K1A2 entry or part of it): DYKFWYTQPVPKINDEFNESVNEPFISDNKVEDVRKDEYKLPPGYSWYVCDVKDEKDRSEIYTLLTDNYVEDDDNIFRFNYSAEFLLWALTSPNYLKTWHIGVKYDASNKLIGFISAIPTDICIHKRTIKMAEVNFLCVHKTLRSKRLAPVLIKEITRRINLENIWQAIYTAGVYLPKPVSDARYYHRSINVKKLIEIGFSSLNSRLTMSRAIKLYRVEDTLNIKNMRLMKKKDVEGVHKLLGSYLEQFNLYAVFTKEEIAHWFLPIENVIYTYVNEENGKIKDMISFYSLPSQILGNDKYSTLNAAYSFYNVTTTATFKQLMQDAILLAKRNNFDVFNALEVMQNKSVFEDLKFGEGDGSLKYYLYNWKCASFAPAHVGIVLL

P. vivax schizonts = assay: P. vivax liver stage assay, schizonts; type: cell-based, Plasmodium vivax; conditions: for Number of liverstage Schizonts per well: 20 µM, 8 dpi; for IC50: Plasmodium vivax, Hepatocyte, 120 h, primary human hepatocytes, treatment day 5 to 8 post-infection, isolates 2 and 3
In short: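 Compound exposure ran days 5–8 post-infection with daily refeeding, dose-response up to 20 µM, MMV390048 at 20 µM as positive control. Host cells were single-lot primary human hepatocytes infected with freshly dissected P. vivax sporozoites; fixed cultures stained with anti-PvUIS4 and DAPI, schizonts quantified by confocal microscopy.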

P. vivax hypnozoites = assay: P. vivax liver stage assay, hypnozoites; type: cell-based, Plasmodium vivax; conditions: for Hypnozoites per well: Isolate 2, replicate wells (Figure 6d); for Number of liverstage hypnozoites per well: 20 µM, 8 dpi; for IC50: Plasmodium vivax, Hepatocyte, 120 h, primary human hepatocytes, treatment day 5 to 8 post-infection, isolate 2
In short: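 Hypnozoite read-out by confocal imaging of PvUIS4/DAPI-stained cultures at day 8 post-infection. Compound was replaced daily starting day 5 in P. vivax-infected single-donor primary human hepatocytes. Positive control: Pi4K inhibitor MMV390048, 20 µM.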

HsNMT1 = target: T1, HsNMT1 (Homo sapiens, UniProt P30419); assay: NMT activity assay (CPM detection of free CoA), HsNMT
T1 sequence (P30419 1-496): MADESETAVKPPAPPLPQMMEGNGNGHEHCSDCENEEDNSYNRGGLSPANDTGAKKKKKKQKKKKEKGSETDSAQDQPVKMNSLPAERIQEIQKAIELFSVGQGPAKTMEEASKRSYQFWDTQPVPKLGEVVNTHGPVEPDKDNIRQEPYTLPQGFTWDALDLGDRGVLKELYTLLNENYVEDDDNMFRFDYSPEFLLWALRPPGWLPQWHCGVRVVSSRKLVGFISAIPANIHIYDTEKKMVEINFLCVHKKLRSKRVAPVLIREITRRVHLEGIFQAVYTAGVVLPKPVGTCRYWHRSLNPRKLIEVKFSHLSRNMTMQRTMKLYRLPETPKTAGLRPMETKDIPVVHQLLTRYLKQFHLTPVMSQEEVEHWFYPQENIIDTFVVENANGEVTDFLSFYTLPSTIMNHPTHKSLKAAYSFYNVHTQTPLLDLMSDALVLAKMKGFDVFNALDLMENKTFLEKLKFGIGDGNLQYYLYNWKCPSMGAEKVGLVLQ

[2] = isolate 1, technical replicates (Fig. 5b)
[3] = isolate 2, technical replicates (Fig. 5b)
[4] = isolate 3, technical replicates (Fig. 5b)
[5] = isolate 1, technical replicates (Fig. 6C)
[6] = isolate 2, technical replicates (Fig. 6C)
[7] = isolate 3, technical replicates (Fig. 6C)

SMILES	Nucleus counts per well ([1]; 1 uM)	Nucleus counts per well ([1]; 2.5uM)	Nucleus counts per well ([1]; 5 uM)	Nucleus counts per well ([1]; 10uM)	Nucleus counts per well ([1]; 20uM, P. vivax-infected wells)	IC50 (PvNMT) [µM]	SI (PvNMT)	Number of liverstage Schizonts per well (P. vivax schizonts; [2])	Number of liverstage Schizonts per well (P. vivax schizonts; [3])	Number of liverstage Schizonts per well (P. vivax schizonts; [4])	Schizonts per well (P. vivax schizonts; Isolate 2, 1.25 uM)	Schizonts per well (P. vivax schizonts; Isolate 2, 2.5 uM)	Schizonts per well (P. vivax schizonts; Isolate 2, 5 uM)	Schizonts per well (P. vivax schizonts; Isolate 2, 10 uM)	Schizonts per well (P. vivax schizonts; Isolate 3, 1.25 uM)	Schizonts per well (P. vivax schizonts; Isolate 3, 2.5 uM)	Schizonts per well (P. vivax schizonts; Isolate 3, 5 uM)	Schizonts per well (P. vivax schizonts; Isolate 3, 10 uM)	IC50 (P. vivax schizonts) [µM]	schizonts (fold change to DMSO) mean diff (P. vivax schizonts; isolate 1, 20 µM)	also measured
Cc1nn(C)c(C)c1CCOc1ccccc1-c1cccc(OCCN(C)C)c1 [Compound 26b]	14910 per well and 16840 per well	13670 per well and 14610 per well	13920 per well and 13020 per well	12600 per well and 13580 per well	11600 per well and 12490 per well	0.0832	118.4	0 per well (2×) and 5 per well	3 per well and 4 per well and 0 per well	3 per well and 8 per well	12 per well and 19 per well and 15 per well	9 per well and 7 per well and 12 per well	10 per well and 8 per well and 6 per well	7 per well and 4 per well and 5 per well	11 per well and 13 per well	9 per well and 12 per well	8 per well and 12 per well	6 per well and 11 per well	3.1 to 4.1	0.917	schizonts (fold change to DMSO) mean diff (P. vivax schizonts; isolate 2, 20 µM): 0.8679; schizonts (fold change to DMSO) mean diff (P. vivax schizonts; isolate 3, 20 µM): 0.625; Hypnozoites per well (P. vivax hypnozoites; 1.25 uM): 10 and 6 and 12; Hypnozoites per well (P. vivax hypnozoites; 2.5 uM): 4 and 8 and 7; Hypnozoites per well (P. vivax hypnozoites; 5 uM): 7 and 5 and 9; Hypnozoites per well (P. vivax hypnozoites; 10 uM): 4 (2×) and 0; Number of liverstage hypnozoites per well (P. vivax hypnozoites; [5]): 1 per well (2×) and 2 per well; Number of liverstage hypnozoites per well (P. vivax hypnozoites; [6]): 3 per well and 1 per well and 2 per well; Number of liverstage hypnozoites per well (P. vivax hypnozoites; [7]): 0 per well; Hypnozoites per well (P. vivax hypnozoites; 20 uM): 3 and 1 and 2; IC50 (P. vivax hypnozoites): 4.6 µM; hypnozoites (fold change to DMSO) mean diff (P. vivax hypnozoites; isolate 1, 20 µM): 0.908; hypnozoites (fold change to DMSO) mean diff (P. vivax hypnozoites; isolate 2, 20 µM): 0.793; IC50 (HsNMT1): 9.85 µM
Cc1nn(C)c(C)c1CCOc1cc(F)ccc1-c1cccc(OCCN(C)C)c1 [Compound 26c]	16190 per well and 15050 per well	15160 per well and 15950 per well	16180 per well and 14300 per well	14610 per well and 15250 per well	12520 per well and 13160 per well	0.0294	162.3	0 per well	3 per well and 0 per well (2×)	2 per well and 1 per well	14 per well and 13 per well and 12 per well	10 per well and 15 per well and 13 per well	7 per well and 12 per well and 8 per well	5 per well and 3 per well and 6 per well	11 per well and 9 per well	6 per well and 10 per well	7 per well and 5 per well	4 per well and 2 per well	2.8 to 4.2	1.000	Schizonts per well (P. vivax schizonts; Isolate 3, 20 uM (Fig. 5c-d)): 2 per well and 1 per well; schizonts (fold change to DMSO) mean diff (P. vivax schizonts; isolate 2, 20 µM): 0.9434; schizonts (fold change to DMSO) mean diff (P. vivax schizonts; isolate 3, 20 µM): 0.8977; Hypnozoites per well (P. vivax hypnozoites; 1.25 uM): 7 and 11 and 8; Hypnozoites per well (P. vivax hypnozoites; 2.5 uM): 6 and 5 and 7; Hypnozoites per well (P. vivax hypnozoites; 5 uM): 6 (2×) and 3; Hypnozoites per well (P. vivax hypnozoites; 10 uM): 3 and 2 and 7; Number of liverstage hypnozoites per well (P. vivax hypnozoites; [5]): 4 per well and 0 per well (2×); Number of liverstage hypnozoites per well (P. vivax hypnozoites; [6]): 4 per well and 0 per well (2×); Number of liverstage hypnozoites per well (P. vivax hypnozoites; [7]): 0 per well (2×) and 1 per well; Hypnozoites per well (P. vivax hypnozoites; 20 uM): 4 and 0 (2×); IC50 (P. vivax hypnozoites): 4.2 µM; hypnozoites (fold change to DMSO) mean diff (P. vivax hypnozoites; isolate 1, 20 µM): 0.923; hypnozoites (fold change to DMSO) mean diff (P. vivax hypnozoites; isolate 2, 20 µM): 0.862; IC50 (HsNMT1): 4.79 µM
